For experiment [1], the system named is H3K36me3 in A549 cells. In words: In-Cell Western (ICW) assay of SETD2 inhibitors (A549 assay). Type of experiment: cell-based, human. Particulars: A549 cells, read-out: SETD2 A549. A digest of the protocol:
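A549 cells seeded at 4,000/well onto compound and incubated 3 days at 37° C. Methanol-fixed cells stained overnight at 4° C with anti-H3K36me3 (1:1000), then IRDye 800CW secondary with DRAQ5 DNA counterstain. Plates read by Licor imaging at 700 and 800 channels.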

Experiment [2] concerns KMS-34 cells. The experiment is described as follows: 14 day KMS-34 long term proliferation (LTP) assay. The conditions noted are these: read-out: LTP Day 14 Abs IC50.
Description: 14 Day KMS-34 Long Term Proliferation (LTP) Assay
Incubate plates for 96 hrs.
The final concentration is 1 μm.
To calculate growth for days 4, 7, 11, and 14:
1. Calculate the split factor for day 4 to 7, day 7 to 11, and day 11-14 The split factor is the viable cells/mL on Day X (either 4, 7, or 11) divided by the density the cells are being split back to.
2. For growth of cells from day 4 to 7, multiply the day 7 viable cells/mL density by the split factor from day 4.
4. For growth of cells from Day 11 to 14, multiply the Day 14 viable cells/mL density by the days 4, 7, and 11 split factors.
5. Plot growth on semi-log chart (viable cells/mL on Y axis, in log, and days on X axis).
From 5 mM to 0.25 μm. […] Mix well by pipetting up and down.
The target of experiment [3] is T1, SETD2(1434-1711) (Homo sapiens, UniProt Q9BYW2).
T1 construct: SETD2 (1434-1711) Assay; catalogue N/A
T1 sequence (Q9BYW2 1434-1711): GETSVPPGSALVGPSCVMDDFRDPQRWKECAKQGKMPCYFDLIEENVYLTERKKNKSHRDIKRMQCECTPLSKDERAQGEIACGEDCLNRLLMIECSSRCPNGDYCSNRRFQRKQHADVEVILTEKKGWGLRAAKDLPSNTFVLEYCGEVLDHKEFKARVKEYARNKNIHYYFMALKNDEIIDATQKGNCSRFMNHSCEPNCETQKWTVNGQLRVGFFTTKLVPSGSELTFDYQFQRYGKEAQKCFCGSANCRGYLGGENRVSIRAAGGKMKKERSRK
In words: SETD2 (1434-1711) assay. Particulars: read-out: SETD2 (1434-1711). Type of experiment: biochemical.

Among the data in US12116358B2, “Substituted indoles and methods of use thereof” (EPIZYME, INC., priority 2018, dated 2024) are IC50 values, retold here.

Where two headings read alike, the source gives them in different places.

On to `CC(=O)N1CCN(c2cc(F)cc(NC(=O)c3cc4c(F)ccc(C)c4[nH]3)c2)CC1` [compound 7], for which the IC50 in experiment [1] came out at 40 nM; in experiment [2] (KMS-34 cells, day 14) it was 60 nM.
Consider `Cc1ccc(F)c2cc(C(=O)Nc3cc(F)cc(N4CCC(N5CCOCC5)C4)c3)[nH]c12` (stereo not shown) [compound 11], for which the IC50 in experiment [1] turned out to be 40 nM; in experiment [3], 6 nM; in experiment [2] (KMS-34 cells, day 14), 90 nM.
As for `Cc1ccc(F)c2cc(C(=O)Nc3cc(Cl)cc(N4CCC(N5CCOCC5)C4)c3)[nH]c12` (stereo not shown) [compound 22], the IC50 in experiment [1] stood at 60 nM; in experiment [3], 10 nM; in experiment [2] (KMS-34 cells, day 14) it was 110 nM.
On the same counts, the results for `CC(=O)N1CCN(c2cc(Cl)cc(NC(=O)c3cc4c(F)ccc(C)c4[nH]3)c2)CC1` [compound 31] are 80 nM, 10 nM and 130 nM.
For `CC(=O)N1CCN(c2cccc(NC(=O)c3cc4c(F)ccc(C)c4[nH]3)c2)CC1C` (stereo not shown) [compound 32], in that order: 80 nM, 20 nM and 110 nM.
For the compound `CC(=O)N1CCN(c2cccc(NC(=O)c3cc4c(F)ccc(C)c4[nH]3)c2)CC1` [compound 34], the IC50 in experiment [1] was 80 nM; in experiment [2] (KMS-34 cells, day 14) it was 250 nM.
`Cc1ccc(F)c2cc(C(=O)Nc3cccc(-c4cncnc4)c3)[nH]c12` [compound 64]: the IC50 in experiment [1] turned out to be 100 nM; in experiment [3] it was 60 nM; in experiment [2] (KMS-34 cells, day 14), 380 nM.
Regarding `Cc1nnc(-c2cccc(NC(=O)c3cc4c(F)ccc(C)c4[nH]3)c2)s1` [compound 65], the IC50 in experiment [1] is 100 nM; in experiment [3], 20 nM; in experiment [2] (KMS-34 cells, day 14) it was 280 nM.
With `Cc1ccc(F)c2cc(C(=O)Nc3cccc(N4CCOC4=O)c3)[nH]c12` [compound 66], the IC50 turned out to be 200 nM in experiment [1] (Homo sapiens); 30 nM in experiment [3]; 420 nM in experiment [2] (Homo sapiens, KMS-34, 336 h).
Consider `Cc1ccc(F)c2cc(C(=O)Nc3cccc(N4CCC(N5CCOCC5)CC4)c3)[nH]c12` [compound 76], for which the IC50 in experiment [1] amounted to 200 nM; in experiment [3] it was 30 nM; in experiment [2] (KMS-34 cells, day 14), 360 nM.
On the same counts, the results for `Cc1ccc(F)c2cc(C(=O)Nc3cccc(N4CCOC(CO)C4)c3)[nH]c12` (stereo not shown) [compound 115] are 200 nM, 50 nM and 260 nM.
Regarding `Cc1ccc(F)c2cc(C(=O)Nc3cccc4cnccc34)[nH]c12` [compound 134], the IC50 in experiment [1] is 300 nM; in experiment [3] it was 60 nM; in experiment [2] (KMS-34 cells, day 14), 800 nM.
Regarding `Cc1ccc(F)c2cc(C(=O)Nc3cccc(-c4cnn(C)c4)c3)[nH]c12` [compound 151], the IC50 in experiment [1] (Homo sapiens) is 300 nM; in experiment [3], 80 nM; in experiment [2] (Homo sapiens, KMS-34, 336 h), 580 nM.
For `Cc1ccc(F)c2cc(C(=O)Nc3cccc(-n4ccnc4)c3)[nH]c12` [compound 221], in that order: 500 nM, 100 nM and 930 nM.
For `CC(=O)N1CCN(C2CCCC(NC(=O)c3cc4c(F)ccc(C)c4[nH]3)C2)CC1` (stereo not shown) [compound 359], the IC50 in experiment [1] was greater than 2000 nM; in experiment [2] (KMS-34 cells, day 14), 7800 nM.
In the case of `CC(=O)N1CCN(C2CCCC(NC(=O)c3cc4c(F)ccc(C)c4[nH]3)C2)CC1` (stereo not shown) [compound 372], the IC50 was greater than 2000 nM in experiment [1] and 10000 nM in experiment [2] (KMS-34 cells, day 14).
On the same counts, the results for `CC(=O)N1CCN(C2CCCC(NC(=O)c3cc4c(F)ccc(C)c4[nH]3)C2)CC1` (stereo not shown) [compound 373] are greater than 2000 nM and 10000 nM.
Take `CC(=O)N1CCN(c2cccc(NC(=O)c3cc4cccc(C5CC5)c4[nH]3)c2)CC1` [compound 509]: the IC50 was 15400 nM in experiment [1] (Homo sapiens); 22400 nM in experiment [3]; 2600 nM in experiment [2] (Homo sapiens, KMS-34, 336 h).
`Cc1ccc(F)c2cc(C(=O)NC3CCCC(N4CCC(N(CCO)S(C)(=O)=O)C4)C3)[nH]c12` (stereo not shown) [compound 1150]: the IC50 is greater than 2000 nM in experiment [1] and 4200 nM in experiment [3].
On the same counts, the results for `Cc1ccc(F)c2cc(C(=O)NC3CCCC(N4CCC(N(CCO)S(C)(=O)=O)C4)C3)[nH]c12` (stereo not shown) [compound 1151] are greater than 2000 nM and 5800 nM.
With `CNC(=NC#N)N1CCN(C2CCCC(NC(=O)c3cc4c(F)ccc(C)c4[nH]3)C2)CC1` (stereo not shown) [compound 1152], the IC50 in experiment [1] is greater than 2000 nM; in experiment [3], 1100 nM.
`Cc1cccc2cc(C(=O)NC(C)c3ccccc3Cl)[nH]c12` (stereo not shown) [compound 1154]: the IC50 in experiment [1] was greater than 25000 nM; in experiment [3] it was 6000 nM.
Take `Cc1cccc2cc(C(=O)NC(C)c3ccccc3Cl)[nH]c12` (stereo not shown) [compound 1156]: the values for the IC50 in experiment [1] and in experiment [3] were 19700 nM and 2100 nM, respectively.
On the same counts, the results for `Cc1ccc(F)c2cc(C(=O)Nc3cc(Cl)cc(N4CCC(CCCN5CCCC5)CC4)c3)[nH]c12` [compound 1158] are 900 nM and 6 nM.
On the same counts, the results for `COCC(=O)N(C)C1CCN(C2CCCC(NC(=O)c3cc4c(F)ccc(C)c4[nH]3)C2)C1` (stereo not shown) [compound 1160] are greater than 2000 nM and 4300 nM.
With `CC(=O)N1C(C)CN(C2CCCC(NC(=O)c3cc4c(F)ccc(C)c4[nH]3)C2)CC1C` (stereo not shown) [compound 1162], the IC50 is 200 nM in experiment [1] and 70 nM in experiment [3].
On the same counts, the results for `CC(=O)N1C(C)CN(C2CCCC(NC(=O)c3cc4c(F)ccc(C)c4[nH]3)C2)CC1C` (stereo not shown) [compound 1163] are greater than 2000 nM and 1600 nM.
For `CCC(=O)N1CCN(C2CCCC(NC(=O)c3cc4c(F)ccc(C)c4[nH]3)C2)CC1C(F)(F)F` (stereo not shown) [compound 1164], in that order: greater than 2000 nM and 2100 nM.
Consider `Cc1ccc(F)c2cc(C(=O)NC3CCCC(N4CCn5c(nccc5=O)C4)C3)[nH]c12` (stereo not shown) [compound 1165], for which the results for the IC50 in experiment [1] and in experiment [3] were greater than 2000 nM and 3500 nM, respectively.
`Cc1ccc(F)c2cc(C(=O)NC3CCCC(N4CCn5c(c[nH]c5=O)C4)C3)[nH]c12` (stereo not shown) [compound 1166]: the IC50 was greater than 2000 nM in experiment [1] and 1000 nM in experiment [3].
On the same counts, the results for `CCC(=O)N1CCN(C2CCCC(NC(=O)c3cc4c(F)ccc(C)c4[nH]3)C2)CC1C(F)(F)F` (stereo not shown) [compound 1167] are 60 nM and 20 nM.
On the same counts, the results for `CCC(=O)N1CCN(C2CCCC(NC(=O)c3cc4c(F)ccc(C)c4[nH]3)C2)CC1C(F)(F)F` (stereo not shown) [compound 1168] are greater than 2000 nM and 1300 nM.
On the same counts, the results for `CNC(=C[N+](=O)[O-])N1CCN(C2CCCC(NC(=O)c3cc4c(F)ccc(C)c4[nH]3)C2)CC1` (stereo not shown) [compound 1169] are greater than 2000 nM and 900 nM.
With `Cc1ccc(F)c2cc(C(=O)NC3CCCC(N4CCN(C(=O)NC5CCOCC5)CC4)C3)[nH]c12` (stereo not shown) [compound 1170], the IC50 in experiment [1] is greater than 2000 nM; in experiment [3] it was 1800 nM.
Take `Cc1ccc(F)c2cc(C(=O)NC3CCCC(N4CCN(C(=O)C(C)C)C(C(F)(F)F)C4)C3)[nH]c12` (stereo not shown) [compound 1171]: the IC50 in experiment [1] worked out at 60 nM; in experiment [3], 30 nM.
Regarding `Cc1ccc(F)c2cc(C(=O)NC3CCCC(N4CCN(C(=O)C(C)C)C(C(F)(F)F)C4)C3)[nH]c12` (stereo not shown) [compound 1172], the IC50 in experiment [1] was greater than 2000 nM; in experiment [3], 3100 nM.
On the same counts, the results for `Cc1ccc(F)c2cc(C(=O)NC3CCCC(N4CCN(C(=O)CO)C(C(F)(F)F)C4)C3)[nH]c12` (stereo not shown) [compound 1173] are 30 nM and 40 nM.
With `Cc1ccc(F)c2cc(C(=O)NC3CCCC(N4CCN(C(=O)CO)C(C(F)(F)F)C4)C3)[nH]c12` (stereo not shown) [compound 1174], the IC50 in experiment [1] was greater than 2000 nM; in experiment [3] it was 4800 nM.
On the same counts, the results for `Cc1ccc(F)c2cc(C(=O)NC3CCCC(N4CCN(C(=O)C(C)C)C(C(F)(F)F)C4)C3)[nH]c12` (stereo not shown) [compound 1175] are greater than 2000 nM and 8400 nM.
Turning to `Cc1ccc(F)c2cc(C(=O)NC3CCCC(N4CCN(C(=O)CO)C(C(F)(F)F)C4)C3)[nH]c12` (stereo not shown) [compound 1176], the IC50 in experiment [1] was greater than 2000 nM; in experiment [3], 2900 nM.
For `CC(=O)N1CC2CN(C3CCCC(NC(=O)c4cc5c(F)ccc(C)c5[nH]4)C3)CC2C1` (stereo not shown) [compound 1177], in that order: 300 nM and 30 nM.
For `CC(=O)N1CC2CN(C3CCCC(NC(=O)c4cc5c(F)ccc(C)c5[nH]4)C3)CC2C1` (stereo not shown) [compound 1178], in that order: greater than 2000 nM and 3900 nM.
Consider `Cc1ccc(F)c2cc(C(=O)NC3CCCC(N4CCn5c(cn(C)c5=O)C4)C3)[nH]c12` (stereo not shown) [compound 1179], for which the IC50 came out at 800 nM in experiment [1] and 500 nM in experiment [3].
Regarding `Cc1ccc(F)c2cc(C(=O)N[C@H]3CCC[C@@H](C4=NNC(=O)CN4)C3)[nH]c12` [compound 1188], the IC50 in experiment [1] (Homo sapiens) was determined as 1800 nM; in experiment [3] it was 200 nM.
For `CC(=O)N1[C@H](C)CN([C@@H]2CCC[C@@H](NC(=O)c3cc4c(F)ccc(C)c4[nH]3)C2)C[C@H]1C` [compound 1193], in that order: greater than 2000 nM and 600 nM.
